{"source": "paper PMC11329928", "about": "“Design, synthesis and structure-activity relationship (SAR) studies of an unusual class of non-cationic fatty amine-tripeptide conjugates as novel synthetic antimicrobial agents” (Frontiers in Pharmacology, 2024)", "key": {"[1]": {"test": "Calcein release from LUVs, all tested compositions", "conditions": "10 μM DICAM, 25°C, vesicle buffer pH 7.4, calcein release", "procedure": "(§1) LUVs were prepared for calceine liberation assays as described ([Chongsiriwatana and Barron, 2009]). Lipid composition (mole %) of LUVs was: POPG (100), POPG:CL (80:20), POPG:CL:DOPE ([…]), and POPG:CL:GlcDAG (75:5:20). Briefly, the nitrogen-dried lipid mixture was dissolved at 1.25 mM with 100 mM calceine in vesicle buffer (10 mM Tris, 140 mM NaCl, 0.5 mM EDTA, pH 7.4) followed by five thaw-freeze cycles. Calceine-entrapped LUVs were prepared by extrusion through 100 nm polycarbonate membranes (Avanti Polar Lipids). Non-entrapped calceine was separated from LUVs by gel filtration on a Sephacryl® S200-HR column (Sigma). LUVs permeabilization was monitored at 25°C by fluorescence emission at 550 nm (λex = 480 nm) as a function of time in a Fluoromax-4 spectrofluorometer (Horiba, France) using agitation. Signal stabilization of samples (1,500 µL vesicle buffer plus 45 µL LUVs) was recorded for 5 min before 10 µM final DICAM addition, and calcein release was monitored for a maximum of 20 min. After incubation, samples were solubilized in Triton X-100 (0.025%) and the fluorescence signal recorded thereafter was used to normalize the entire data set. Solubilization of DICAM-untreated LUVs in Triton X-100 was used as a positive control. No perturbation was detected in controls containing DMSO."}, "[2]": {"test_system": "Streptococcus pneumoniae R6", "test": "Growth inhibition / lysis screening of planktonic cultures (OD550/600)", "format": "cell-based", "parameters": "key: (+++) full inhibition; (++) partial inhibition; (+) growth retardation; -: (−) no effect", "conditions": "S. pneumoniae R6, 50 and 100 μM compound added at early logarithmic phase (T1), OD550/600 followed 10 h, 37°C", "procedure": "(§2) Planktonic cultures of selected pathogens (S. pneumoniae R6, S. pyogenes ^T, Staphylococcus aureus ^T, Escherichia coli DH10B, and Pseudomonas aeruginosa PAO1 strains) on early logarithmic-phase (T1) were assayed for their sensitivity to a broad range of DICAM compounds, as indicated in Table 1. Their bacteriostatic or lytic effect was first tested by measuring the variation of the OD550/600 as a function of time (10 h) when (50/100 μM) DICAMs were added, compared to untreated controls. The screening results, summarized in Table 1, evidenced that a potent antimicrobial activity may exist even when the negative charge of the peptide was higher than in the prototype compounds.\n(§3) Susceptibility to DICAMs was first tested by growth-inhibition assays at 50 and 100 μM of compound. Briefly, working solutions at 5 mM or 10 mM DICAM in pure DMSO were prepared from DICAM stocks (40 mM in pure DMSO) and diluted with fresh culture medium to 5× the desired final concentration. Aliquots (50 µL) of these solutions were added to 200 µL of bacterium cultures grown to early exponential phase (OD550/600 c. a. 0.15–0.2 in sterile 96-well plates (Cultek, Spain). Incubation continued for 10 h at 37°C and turbidity (OD550/600) values were measured every 20 min to monitor growth and lysis, using a VersaMax microplate reader (Molecular Devices; United Kingdom). Next, the activity dependence on DICAM’s dose was examined by measuring the turbidity of treated and untreated cultures as a function of time. Also, the decay of bacterial viability (CFU/mL) at selected times of treatment was assessed by colony counting on LB-agar or TSA plates after overnight incubation at 37°C. By default, 10 μL of 10-fold serially diluted samples were plated, which set the lower detection limit at 10^2 CFU/mL (10^1 CFU/mL when 100 μL of the undiluted sample was seeded)."}, "[3]": {"test_system": "Pseudomonas aeruginosa PAO1", "test": "Growth inhibition screening of planktonic cultures (OD550/600)", "format": "cell-based", "parameters": "key: (+++) full inhibition; (++) partial inhibition; (+) growth retardation; -: (−) no effect", "conditions": "P. aeruginosa PAO1, 50 and 100 μM compound added at T1, OD550/600 followed 10 h, 37°C", "procedure": "as §2, §3"}, "Streptococcus pyogenes T": {"test_system": "Streptococcus pyogenes T", "test": "Growth inhibition screening of planktonic cultures (OD550/600)", "format": "cell-based", "parameters": "key: (+++) full inhibition; (++) partial inhibition; (+) growth retardation; -: (−) no effect", "conditions": "S. pyogenes T, 50 and 100 μM compound added at T1, OD550/600 followed 10 h, 37°C", "procedure": "as §2, §3"}, "Staphylococcus aureus T": {"test_system": "Staphylococcus aureus T", "test": "Growth inhibition screening of planktonic cultures (OD550/600)", "format": "cell-based", "parameters": "key: (+++) full inhibition; (++) partial inhibition; (+) growth retardation; -: (−) no effect", "conditions": "S. aureus T, 50 and 100 μM compound added at T1, OD550/600 followed 10 h, 37°C", "procedure": "as §2, §3"}, "Escherichia coli DH10B": {"test_system": "Escherichia coli DH10B", "test": "Growth inhibition screening of planktonic cultures (OD550/600)", "format": "cell-based", "parameters": "key: (+++) full inhibition; (++) partial inhibition; (+) growth retardation; -: (−) no effect", "conditions": "E. coli DH10B, 50 and 100 μM compound added at T1, OD550/600 followed 10 h, 37°C", "procedure": "as §2, §3"}, "[4]": {"test": "RP-HPLC retention time used to determine hydrophobicity", "format": "physicochemical", "conditions": "analytical RP-HPLC, C18 Sunfire column (4.6 mm × 150 mm, 3.5 μm); A = 0.05% TFA in water, B = acetonitrile; 10% to 100% B in 20 min then isocratic 100% B 10 min; 217 and 254 nm; used as measure of hydrophobicity", "procedure": "The purity of the lipopeptides was checked by analytical RP-HPLC on an Agilent Infinity instrument equipped with a Diode Array and a C18 Sunfire column (4.6 mm × 150 mm, 3.5 μm). As mobile phase A:B mixtures were used, where A = 0.05% TFA in water and B = acetonitrile. The samples were analyzed at 217 and 254 nm in a gradient from 10% of B to 100% of B in 20 min followed by isocratic 100% of B in 10 min.\nRetention times were used to determine the hydrophobicity ([Neubauer et al., 2020]). HRMS (EI+) was carried out in an Agilent 6,520 Accurate-Mass Q-TOF LC/MS spectrometer using water/acetonitrile mixtures. Results can be found in Supplementary Section S3, S4."}, "S. pyogenes T membrane [5]": {"test_system": "S. pyogenes T membrane", "test": "Membrane depolarization, DiSC3(5)", "format": "cell-based, Streptococcus pyogenes", "conditions": "S. pyogenes T in BHI, 37°C", "procedure": "(§4) Permeation and depolarization of S. pyogenes ^T membrane by DICAMs were assayed with the fluorescent probes SYTOX Green and DiSC3(5), respectively, in a Varioskan Flash microplate reader (Thermo Scientific; Spain) using FluoroNunc 96-well plates (Thermo Scientific; Spain). For permeation assays, cells were grown to an OD550 ≈ 0.3, washed once with PBS pH 7.2 (3,800 × g, 7 min, room temperature), and adjusted to a final OD550 ≈ 0.4 (∼10^8 CFU/mL) with the same buffer before mixing in the dark with SYTOX Green (5 µM final concentration). One hundred µL of this suspension was dispensed per plate well and the signal stabilization was monitored for 15 min (λex = 485 nm; λem = 520 nm). Then, 100 µL of two-fold serially diluted lipopeptide samples was added and changes in fluorescence intensity were registered for 60 min at 37°C. SYTOX Green (900 Da) binds to intracellular DNA when the cell membrane is damaged, thereby increasing fluorescence intensity ([Roth et al., 1997]). Positive controls (100% membrane permeabilization) were carried out by adding Titron X-100 (0.01% final concentration) to untreated bacterial samples ([Rathinakumar et al., 2009]). For membrane depolarization assays, 180 µL of an OD550 ≈ 0.2 culture (BHI; ≈ 10^7 CFU/mL) supplemented with DiSC3(5) (1 µM final concentration) was distributed per well, and signal stabilization was registered for 30 min (λex = 622 nm; λem = 670 nm) ([Te Winkel et al., 2016]). Subsequently, 20 µL of a two-fold serial dilution of lipopeptide in culture medium was added, and fluorescence intensity was recorded for 60 min at 37°C. Partition of DiSC3(5) to the surface of polarized cells decreases the probe fluorescence, and its release, caused by membrane depolarization, results in an increase in fluorescence. […] The background signal of controls with bacterial cells without the fluorescent probe, as well as the dye fluorescence in the presence of the tested compounds without bacteria, were also registered. No change in the fluorescence intensity of the probes occurred upon DICAM addition in the absence of bacterial cells."}, "S. pyogenes T membrane [6]": {"test_system": "S. pyogenes T membrane", "test": "Membrane permeation, SYTOX Green", "format": "cell-based, Streptococcus pyogenes", "conditions": "S. pyogenes T in PBS pH 7.2, 37°C", "procedure": "as §4"}, "[7]": {"test": "Calcein release from LUVs", "conditions": "10 μM DICAM, 25°C, vesicle buffer pH 7.4, calcein release", "procedure": "as §1"}}}
{"substance": "Asn- Pro -NH-C18H37 · HCl [DICAM 13]", "values": [{"measurement": "Permeation of model membranes (LUVs), result in words", "setting": "[1]", "value": "able to permeate all tested model membranes"}, {"measurement": "Growth halt or lysis (50/100 μM), Spn", "setting": "[2]", "value": "-"}, {"measurement": "Growth halt or lysis (50/100 μM), Pa", "setting": "[3]", "value": "-"}, {"measurement": "Growth halt or lysis (50/100 μM), Spy T", "setting": "Streptococcus pyogenes T", "value": "+"}, {"measurement": "Growth halt or lysis (50/100 μM), Sa T", "setting": "Staphylococcus aureus T", "value": "-"}, {"measurement": "Growth halt or lysis (50/100 μM), Ec", "setting": "Escherichia coli DH10B", "value": "-"}, {"measurement": "Retention time", "setting": "[4]", "value": 20.18, "unit": "min"}]}
{"substance": "Asn- Pro -Tyr(Bzl)-NH-C18H37 ·HCl [DICAM 6]", "values": [{"measurement": "Membrane depolarization (DiSC3(5)), result in words", "setting": "S. pyogenes T membrane [5]", "value": "no depolarization"}, {"measurement": "Membrane permeation (SYTOX Green), result in words", "setting": "S. pyogenes T membrane [6]", "value": "no depolarization or membrane permeation"}, {"measurement": "Permeation of DOPE:POPG:CL (80:15:5) LUVs, result in words", "setting": "[7]", "value": "particularly effective"}, {"measurement": "Growth halt or lysis (50/100 μM), Spn", "setting": "[2]", "value": "-"}, {"measurement": "Growth halt or lysis (50/100 μM), Pa", "setting": "[3]", "value": "-"}, {"measurement": "Growth halt or lysis (50/100 μM), Spy T", "setting": "Streptococcus pyogenes T", "value": "-"}, {"measurement": "Growth halt or lysis (50/100 μM), Sa T", "setting": "Staphylococcus aureus T", "value": "-"}, {"measurement": "Growth halt or lysis (50/100 μM), Ec", "setting": "Escherichia coli DH10B", "value": "-"}, {"measurement": "Retention time", "setting": "[4]", "value": 22.10, "unit": "min"}]}
